Values quoted from earlier work, collected in patent EP1368044B1, “IMMUNOMODULATOR FOR THE MANAGEMENT OF HUMAN IMMUNODEFICIENCY VIRUS (HIV) DISEASE/INFECTION” (Bakulesh, Mafatlal Khamar, priority 2002, dated 2002).
Ends that are not written are not given here.

Test system: HIV
Conditions: along with interleukin-2

Thymosin α1: a 28-aminoacid peptide (SDAAVDTSSEITTKDLKEKKEVVEEAEN; ends and bridges not checked; UniProt P06454 2-29, looked up)
efficacy to improve CD4: no significant effect
